Data from PMC9967275, “Screening the Pathogen Box to Discover and Characterize New Cruzain and TbrCatL Inhibitors” (Pathogens, 2023).

Key:
cruzain = cruzain (Trypanosoma cruzi, UniProt P25779); experiment: biochemical; conditions: for Cruzain 0’ Inhibition / Cruzain 10’ Inhibition: sheet "Screening results"
Method in brief: (§1)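 Recombinant enzymes assayed by Z-Phe-Arg-AMC cleavage at 25 °C, fluorescence 340/440 nm over 5–7 min, with 10 min or no enzyme–compound preincubation.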

TbrCatL = target: T1, TbrCatL (Trypanosoma brucei rhodesiense, UniProt Q95PM0); experiment: TbrCatL enzymatic inhibition assay (cleavage of fluorogenic substrate Z-FR-AMC); type: biochemical; conditions: for TbrCatL 0’ Inhibition / TbrCatL 10’ Inhibition: sheet "Screening results"
T1 construct: Conor Caffrey (University of California San Diego)
T1 sequence (Q95PM0 entry or part of it): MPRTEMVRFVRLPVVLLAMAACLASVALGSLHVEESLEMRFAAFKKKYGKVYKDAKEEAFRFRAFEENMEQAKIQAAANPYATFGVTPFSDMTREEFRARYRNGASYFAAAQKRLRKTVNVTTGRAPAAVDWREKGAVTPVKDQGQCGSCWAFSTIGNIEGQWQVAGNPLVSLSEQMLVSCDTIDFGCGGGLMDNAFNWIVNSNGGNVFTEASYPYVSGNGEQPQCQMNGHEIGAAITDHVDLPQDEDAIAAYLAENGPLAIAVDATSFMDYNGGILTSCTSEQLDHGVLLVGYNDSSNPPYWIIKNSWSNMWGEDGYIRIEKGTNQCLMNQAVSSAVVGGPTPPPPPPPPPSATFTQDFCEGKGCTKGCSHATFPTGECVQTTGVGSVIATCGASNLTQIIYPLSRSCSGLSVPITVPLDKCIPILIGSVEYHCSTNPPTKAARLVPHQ
Method in brief: as §1

[1] = 0’ (pre-incubation time), Pathogen Box screening results
[2] = 10’ (pre-incubation time), Pathogen Box screening results
[3] = 0’ (no pre-incubation), sheet Screening results
[4] = 10’ (pre-incubation), sheet Screening results
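Note: at 5 µM compound concentration.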

Sequence of cruzain (P25779 123-337 limits assumed): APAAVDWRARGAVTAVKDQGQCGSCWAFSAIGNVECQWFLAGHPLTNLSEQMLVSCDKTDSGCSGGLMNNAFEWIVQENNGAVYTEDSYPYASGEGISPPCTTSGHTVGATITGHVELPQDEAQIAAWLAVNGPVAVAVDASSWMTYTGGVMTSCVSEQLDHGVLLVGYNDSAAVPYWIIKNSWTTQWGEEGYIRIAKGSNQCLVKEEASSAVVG

SMILES | Cruzain Inhibition 0’ (cruzain; [3]) [%] | Cruzain Inhibition 10’ (cruzain; [4]) [%] | TbrCatL Inhibition 0’ (TbrCatL; [3]) [%] | TbrCatL Inhibition 10’ (TbrCatL; [4]) [%] | Cruzain 0’ Inhibition (cruzain; 0’ (pre-incubation time)) [%] | Cruzain 10’ Inhibition (cruzain; 10’ (pre-incubation time)) [%] | TbrCatL 0’ Inhibition (TbrCatL; 0’ (pre-incubation time)) [%] | TbrCatL 10’ Inhibition (TbrCatL; 10’ (pre-incubation time)) [%] | also measured
COc1cccc(-n2nnnc2S(C)(=O)=O)c1 [MMV272144] | – | – | – | – | – | – | – | – | Cruzain Inhibition 0’ (cruzain; [1]): -1.3%; Cruzain Inhibition 10’ (cruzain; [2]): 11%; TbrCatL Inhibition 0’ (TbrCatL; [1]): -11%; TbrCatL Inhibition 10’ (TbrCatL; [2]): 9%
CCc1nc2ccccc2n1CC(O)COc1cc(C)ccc1Cl (centres unmarked) [MMV676449] | 4.5 | 6 | 1.5 | 3.5 | – | – | – | – | –
CC(=O)Nc1ccc(NC(=O)c2cc(-c3cc(Cl)ccc3O)n[nH]2)cc1 [MMV676380] | 0.6 | -0.9 | -5 | -3 | – | – | – | – | –
N#Cc1nc(-c2ccccc2)oc1S(=O)(=O)c1ccc(Cl)cc1 [MMV676412] | 6 | -27 | 5.5 | -69 | – | – | – | – | –
Cc1ccc2cc(C3NC(=O)c4ccccc4N3)c(Cl)nc2c1 (centres unmarked) [MMV019807] | 8 | 7 | 5 | 9 | – | – | – | – | –
Cc1nnc(NC(=O)c2cn(-c3ccccc3)nc2-c2ccccc2C)o1 [MMV020320] | 4.5 | 2.2 | -0.2 | 4 | – | – | – | – | –
c1ccc(Oc2ccc(-c3cc(N4CCNCC4)[nH]n3)cc2)cc1 [MMV687706] | – | – | – | – | 2.4 | 4 | -6 | 23 | –
FC(F)(F)c1nnc2ccc(Cl)nn12 [MMV069458] | 2 | -4 | 4 | 0 | – | – | – | – | –
CC1CCCN(C(=O)C(C)Nc2cc(Cl)ccc2N2CCOCC2)C1 (centres unmarked) [MMV020388] | 3.4 | 4.5 | 3.3 | 0.2 | – | – | – | – | –
CNC(=O)CNc1nc(-c2ccccn2)nc2scc(-c3ccccc3)c12 [MMV1029203] | – | – | – | – | -6 | 28 | -10 | -7 | –
Nc1cccnc1Nc1ccc(Cl)cc1 [MMV676524] | – | – | – | – | 4.7 | 13 | 11 | 11 | –
O=[N+]([O-])c1cn2c(n1)OC[C@@H](OCc1ccc(OC(F)(F)F)cc1)C2 [MMV688755] | – | – | – | – | – | – | – | – | Cruzain Inhibition 0’ (cruzain; [1]): 3%; Cruzain Inhibition 10’ (cruzain; [2]): 6.6%; TbrCatL Inhibition 0’ (TbrCatL; [1]): -0.5%; TbrCatL Inhibition 10’ (TbrCatL; [2]): 4%
c1cc(C2=NCCN2)cc(-c2cc(-c3ccc(C4=NCCN4)cc3)no2)c1 [MMV688361] | – | – | – | – | 4.5 | 7.4 | 1.9 | -3.5 | –
COc1cc(CN2CCC3(C=Cc4ccccc43)CC2)cc2c1OCO2 [MMV688941] | – | – | – | – | 1.7 | 6 | -3.2 | -4 | –
CCCn1nnc(NC(=O)COc2ccc(C3CCCCC3)cc2)n1 [MMV676597] | 3 | -3.3 | 10 | 10 | – | – | – | – | –
FC(F)(F)c1cccc(-c2nc3c(NCc4ccncc4)nccc3[nH]2)c1 [MMV032967] | – | – | – | – | -4.6 | -2.4 | -7 | 1.3 | –
c1ccc(Oc2ccc(-c3cc(N4CCOCC4)n[nH]3)cc2)cc1 [MMV045105] | – | – | – | – | 1.3 | 29 | 2 | 22 | –
Cc1ccccc1C(=O)N1NC(=Nc2ccccc2)SC1(C)C [MMV688771] | – | – | – | – | 29 | 8 | -5 | 0.3 | –

SMILES | Cruzain Inhibition 0’ (cruzain; [3]) [%] | Cruzain Inhibition 10’ (cruzain; [4]) [%] | TbrCatL Inhibition 0’ (TbrCatL; [3]) [%] | TbrCatL Inhibition 10’ (TbrCatL; [4]) [%] | Cruzain 0’ Inhibition (cruzain; 0’ (pre-incubation time)) [%] | Cruzain 10’ Inhibition (cruzain; 10’ (pre-incubation time)) [%] | TbrCatL 0’ Inhibition (TbrCatL; 0’ (pre-incubation time)) [%] | TbrCatL 10’ Inhibition (TbrCatL; 10’ (pre-incubation time)) [%] | also measured
COc1cc(N[C@@H](C)CCCN)c2ncccc2c1 [MMV000023] | 2.8 | 6.4 | 9 | 5 | – | – | – | – | –
Cc1c[nH]c(CCNC(=O)c2cc(-c3ccc(Cl)cc3)cs2)n1 [MMV676350] | 17 | 22 | 28 | 28 | – | – | – | – | –
CC(C)n1ncc2c(C(=O)NCC(c3cccs3)N3CCOCC3)cc(-c3ccccc3)nc21 (centres unmarked) [MMV676406] | 6 | 6 | 17 | 15 | – | – | – | – | –
CNC(=O)c1nn(C)c2c1C(C)(C)Cc1cnc(Nc3ccc(N4CCN(C)CC4)cc3)nc1-2 [MMV676602] | 0.9 | -6 | 4 | 1.5 | – | – | – | – | –
CC1(O)CC(c2nc(-c3ccc4ccc(-c5ccccc5)nc4c3)c3c(N)nccn23)C1 (centres unmarked) [MMV676605] | 7.4 | -0.9 | 7 | -13 | – | – | – | – | –
NCC(=O)N1CCn2c(nc(-c3ccccc3)c2Nc2ccc3c(c2)OCO3)C1 [MMV011691] | – | – | – | – | 1.8 | -3.4 | -1.7 | 1.3 | –
CCOc1ccccc1NC(C)C(=O)Nc1cc(C(F)(F)F)ccc1N1CCOCC1 (centres unmarked) [MMV407834] | – | – | – | – | -3.4 | 4 | -3 | -7 | –
c1ccc(-c2[nH]c3ccccc3c2C(c2ccccn2)N2CCCC2)cc1 (centres unmarked) [MMV688762] | 3.2 | 1 | 3.2 | 1.8 | – | – | – | – | –
CCCCN(CCCC)c1c(C#N)cc(S(=O)(=O)Nc2ccccc2)cc1C#N [MMV688467] | – | – | – | – | -2.2 | 1.8 | -4.5 | 8 | –
COc1cc(C2=NCCN2)ccc1-n1cc(-c2cccc(C3=NCCN3)c2)nn1 [MMV688474] | – | – | – | – | 2.4 | 13 | 10 | 30 | –
OCCc1ccc(Nc2nccc(-c3nnc4ccccn34)n2)cc1 [MMV028694] | – | – | – | – | 7 | 14 | 8 | 13 | –
COc1ccc(-c2cncc3ccc(C(=O)NCCCn4ccnc4)nc23)cc1 [MMV020670] | – | – | – | – | -2.2 | -17 | -3 | -13 | –
CC(=O)Nc1ccc(-c2noc(CC3CCCN(Cc4cccc(F)c4C)C3)n2)cc1 (centres unmarked) [MMV689061] | 1.2 | 3.6 | 0 | 0.8 | – | – | – | – | –
O=C(NCCc1ccccc1)c1cc(-c2cccnc2)cnc1NCC1CC1 [MMV026490] | – | – | – | – | -1.3 | -5 | 0.1 | -13 | –
COc1ccc(-c2cnc3ccc(NCc4ccc(S(N)(=O)=O)cc4)nn23)cn1 [MMV010545] | – | – | – | – | 0.8 | 3.6 | -3.2 | 7 | –
OCc1ccc(-c2cncc(Nc3cccc(Cl)c3)c2)cc1 [MMV026468] | – | – | – | – | 0 | 2.8 | 1.7 | 2.7 | –
O=C(NCc1ccco1)N1CCN(Cc2ccc(Cl)s2)CC1 [MMV688555] | -0.7 | 0.5 | 6 | 0.9 | – | – | – | – | –
